Molecules are shown by their SMILES.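 48-hour exposure; five concentrations; linearly interpolated endpoints. At the TGI there is no net growth.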

Among the test systems are SF-539 CNS; SNB-75 CNS; OVCAR-3 ovarian; HL-60(TB) leukemia; SNB-19 CNS; MDA-MB-435; 786-0 renal; HCC-2998 colon; MDA-N; SF-268 CNS; M14 melanoma; T-47D breast; RXF 393 renal; NCI-H23 lung; EKVX NSCLC; HCT-116 colon; HOP-62 NSCLC; OVCAR-5 ovarian; CAKI-1 renal; NCI-H226 lung.
Holding throughout (experiment): NCI anticancer screen, dose series, 48 h

Regarding `CCn1c(SCC(=O)NNC(=S)Nc2ccc(Cl)cc2)nc2ccccc2c1=O`, the TGI was > 100 µM in the assay with SF-539 CNS; > 100 µM in the assay on SNB-75 CNS; > 100 µM in the assay on OVCAR-3 ovarian; 84.9 µM with HL-60(TB) leukemia; > 100 µM in the assay with SNB-19 CNS; > 100 µM with MDA-MB-435. For the same molecule, the TGI is > 100 µM in the assay with 786-0 renal; > 100 µM in the assay with HCC-2998 colon; > 100 µM in the assay on MDA-N; > 100 µM with SF-268 CNS; > 100 µM with M14 melanoma; 83 µM in the assay on T-47D breast. The TGI in the assay with RXF 393 renal, in the assay on NCI-H23 lung, in the assay on EKVX NSCLC, in the assay on HCT-116 colon, in the assay with HOP-62 NSCLC and in the assay with OVCAR-5 ovarian was > 100 µM each time. Also, the TGI in the assay with CAKI-1 renal and in the assay on NCI-H226 lung was > 100 µM throughout.
With `O=C(O)c1cccc(S(=O)(=O)NN2C(=O)CSC2c2ccccc2Cl)c1` (stereo not given), the TGI with SF-539 CNS, with SNB-75 CNS, with OVCAR-3 ovarian, in the assay on HL-60(TB) leukemia, with SNB-19 CNS and in the assay with MDA-MB-435 was > 100 µM in each case. For the same molecule, the TGI in the assay on 786-0 renal, with HCC-2998 colon, with MDA-N, with SF-268 CNS, in the assay on M14 melanoma and in the assay on T-47D breast was > 100 µM throughout. Besides, the TGI in the assay on RXF 393 renal, with NCI-H23 lung, in the assay with EKVX NSCLC, in the assay with HCT-116 colon, in the assay with HOP-62 NSCLC and with OVCAR-5 ovarian was > 100 µM in each case. In addition, the TGI with CAKI-1 renal and with NCI-H226 lung was > 100 µM in each case.
Turning to `N=c1oc2ccc([N+](=O)[O-])cc2cc1C(=O)Nc1ccccn1`, the TGI is > 100 µM in the assay with SF-539 CNS; > 100 µM in the assay on SNB-75 CNS; 65.8 µM in the assay with OVCAR-3 ovarian; > 100 µM in the assay on HL-60(TB) leukemia; > 100 µM with SNB-19 CNS; > 100 µM in the assay with MDA-MB-435. Further, the TGI is 42.9 µM in the assay with 786-0 renal; > 100 µM with HCC-2998 colon; > 100 µM in the assay with MDA-N; > 100 µM with SF-268 CNS; > 100 µM with M14 melanoma; > 100 µM in the assay with T-47D breast. Further, the TGI in the assay with RXF 393 renal, with NCI-H23 lung, in the assay on EKVX NSCLC, in the assay on HCT-116 colon, in the assay on HOP-62 NSCLC and with OVCAR-5 ovarian was > 100 µM each time. Further, the TGI with CAKI-1 renal and in the assay with NCI-H226 lung was > 100 µM each time.
`CC(=O)OCC1=C2C(OC(=O)C(C)C)CC3(COC(C)=O)OC3/C=C\C3(C)OC3C2OC1=O` (stereo not given): the TGI with SF-539 CNS, in the assay with SNB-75 CNS, in the assay with OVCAR-3 ovarian, with HL-60(TB) leukemia, in the assay with SNB-19 CNS and with MDA-MB-435 was > 100 µM each time. Moreover, the TGI with 786-0 renal, with HCC-2998 colon, with MDA-N, in the assay on SF-268 CNS, in the assay with M14 melanoma and with T-47D breast was > 100 µM throughout. The TGI in the assay with RXF 393 renal, in the assay on NCI-H23 lung, in the assay with EKVX NSCLC, with HCT-116 colon, with HOP-62 NSCLC and with OVCAR-5 ovarian was > 100 µM in each case. The TGI with CAKI-1 renal and in the assay with NCI-H226 lung was > 100 µM throughout.

(Values after PubChem BioAssay (NCI).)
